# System: COLO205 cells
# Test: Phospho-proteome profiling (CDK-motif antibody enrichment, LC-MS/MS)
# Format: cell-based, human
# Conditions: 6 H
# Excerpt: We phospho-proteome profiled COLO205 cells to identify Mediator kinase substrates following chemical inhibition of Mediator kinase activity. Given the confirmed CDK8/19 selectivity of our compounds in binding and enzymatic activity assays, we employed a pool of antibodies selective for the proline-rich motifs phosphorylated by the CDK family to enrich potential CDK8/19 substrates for LC-MS/MS analysis.
# Adherent COLO205 cells were lysed with a urea buffer, lysates were reduced with DTT, alkylated with iodoacetimide and digested with trypsin-tosylphenylalanyl chloromethyl ketone. Digested peptides were immunoprecipitated using a pool of motif antibodies from Cell Signaling Technologies (US) comprising: phospho-MAPK substrate (PXS*P or S*PXR/K, #2325, RRID:AB_331820), phospho-CDKs substrate ((K/H)-S*P, #2324; RRID:AB_2244779), phospho-PLK binding motif (ST*P, #5243; RRID:AB_10891778) and phospho-tPE motif (T*PE, #3004; RRID:AB_10890649)-of phospho-MAPK (2325), phospho-CDK (2324), phospho-PLK (5243) and phospho-tPE (C3004) motif-recognizing antibodies immobilized onto protein A/G beads. Immunoprecipitated peptides were analyzed using an LTQ-Orbitrap-Velos. Sequences were assigned to the MS/MS spectra and evaluated using SEQUEST 3G and SORCERER 2 (Sage-N Research v4.0, Milpitas). Quantitative data was evaluated and clustered in Spotfire Decision Site (www.spotfire.tibco.com) and normalized using quartile normalization. Functional annotation and pathway analysis used DAVID (https://david.ncifcrf.gov/). […]
# Phospho-proteome analyses
# Adherent COLO205 cells were washed with PBS and cells lysed using urea lysis buffer (9 M Urea, 20 mM HEPES, pH 8.0, 1 mM beta-glycerophosphate, 1 mM sodium vanadate, 2.5 mM sodium pyrophosphate) and stored at -80 °C prior to analysis. The supernatants were reduced with 100 mM DTT for 30 minutes at 55 °C, followed by alkylation with 50 mM iodoacetimide for 15 minutes at ambient temperature in the dark.
# The samples were diluted in 20 mM HEPES, pH 8.0 and digested overnight with 10 ug/mL trypsin-tosylphenylalanyl chloromethyl ketone in 1 mM HCl. Digested peptides were acidified with 1% formic acid and then desalted over 360-mg SEP PAK C18 columns (Waters, UK). Peptides were eluted with 40% acetonitrile in 0.125% formic acid, dried under a vacuum and the lyophilised peptides used for immunoprecipitation.
# A pool of motif antibodies from Cell Signaling Technologies (US) comprising: phospho-MAPK substrate (PXS*P or S*PXR/K, #2325, RRID:AB_331820), phospho-CDKs substrate ((K/H)S*P, #2324; RRID:AB_2244779), phospho-PLK binding motif (ST*P, […]
# RRID:AB_10890649), were immobilised onto protein A/G beads overnight at 4 °C. The lyophilised peptides were resuspended in MOPS buffer (50 mM MOPS, pH 7.2, 10 mM KH2PO4, 50 mM NaCl) and centrifuged for 5 mins at 13,500 rpm in an Eppendorf benchtop microcentrifuge. The supernatants were incubated with the motif-bound beads for 2.5 hours at 4 °C . The beads were harvested by centrifugation at 4000 rpm in an Eppendorf benchtop microcentrifuge for 5 mins, washed with MOPS buffer twice and washed again 5 times with deionised water. The peptides were eluted off the beads using 0.125% formic acid, were desalted and dried under a vacuum. The lyophilised immunoprecipitated peptides were resuspended in 0.125% formic acid and separated on a capillary column packed with Magic C18 AQ reversed-phase resin.
# Peptides were eluted using a 72-minute linear gradient of acetonitrile in 0.125% formic acid delivered at 280nL/min. Samples were analysed using an LTQ-Orbitrap-Velos.
# MS Parameter Settings were: MS Run Time 96 min, MS1 Scan Range (300.0 – 1500.00), Top 20 MS/MS (Min Signal 500, Isolation Width 2.0, Normalized Coll.
# Charge State Rejection Enabled, Charge State 1+ Rejected, Dynamic Exclusion Enabled, Repeat Count 1, Repeat Duration 35.0, Exclusion List Size 500, Exclusion Duration 40.0, Exclusion Mass Width Relative to Mass, Exclusion Mass Width 10ppm). […]
# [1] = MCM4 peptide 69 - fsSppqmhssaipldfdvSspltygtpssr - 98
# [2] = MCM4 peptide 86 - vsSpltygtpssr - 98
# [3] = MDC1 peptide 1645 - SSvkTpkpvepaaSdlepftptdqsvTpeaiaqggqsk - 1682
# [4] = MDC1 peptide 1649 - tpkpvepaasdlepfTptdqsvTpeaiaqggqsk - 1682
# [5] = MED13 peptide 551 - TpStpqsqhfyqmpTpdplvpskpmedr - 578
# [6] = MED13 peptide 551 - tpstpqSqhfyqmpTpdplvpskpmedr - 578
# [7] = MED14 peptide 1106 - agnwpgSpqvsgpSpaar - 1123
# [8] = MED26 peptide 295 - gSvpSpSprpqaldatqvpSplplaqpsTppvr - 328
# [9] = MED26 peptide 295 - gsvpSpsprpqaldatqvpSplplaqpStppvrr - 328
# [10] = MED26 peptide 295 - gsvpspsprpqaldatqvpSplplaqpStppvrr -328
# [11] = MED26 peptide 295 - gsvpspsprpqaldatqvpSplplaqpsTppvr - 328
# [12] = MLLT6 peptide 446 - palsatpvpadeTpetglkek - 466
# [13] = NDRG3 peptide 327 - srthstSSSlgsgeSpfsr - 345
# [14] = NEDD4L peptide 549 - avkdTlSnpqSpqpSpYnSpkpqhk - 593
# [15] = NOP2 peptide 173 - eaaagiqwSeeeTedeeeekevTpesgppk - 202
# [16] = NOSIP peptide 158 - vlpsfwipslTpeak - 172
# [17] = NRIP1 peptide 537 - tsviespstnrtTpvSTpplltssk - 561
# [18] = PBK peptide 18 - ksvlcstpTinipaSpfmqk - 37
# [19] = PBK peptide 19 - svlcStptinipaSpfmqk - 37
# [20] = PBK peptide 19 - svlcsTpTinipaspfmqk - 37
# [21] = PDE12 peptide 200 - eakpgaaepevgvpsslspSSpSsswtetdveer - 233
# [22] = PLEC peptide 4274/4384 - SSsvgsSssypiSpavsr - 4291/4401
# [23] = PLEKHA6 peptide 453 - shsvprspSqgsysr - 467
# [24] = PPP1R18 peptide 192 - wrlSpgeTper - 202
# [25] = PRC1 peptide 487/447 - klntttmsnatanssirpifggtvyhSpvsr - 517/477
compound,measurement,setting,value
Cn1cc(-c2ccc(-c3cncc(Cl)c3N3CCC4(CCNC4=O)CC3)cc2)cn1 [CCT251545],MEAN MS SIGNAL CMPD 1 6 H,MCM4 peptide 69 - fSsppqmhssaipldfdvSsplTygtpssr - 98,71644
same,CMPD 1/DMSO,[1],0.313
same,MEAN MS SIGNAL CMPD 1 6 H,[1],16633
same,CMPD 1/DMSO,[2],0.545
same,MEAN MS SIGNAL CMPD 1 6 H,[2],23881
same,CMPD 1/DMSO,[3],0.574
same,MEAN MS SIGNAL CMPD 1 6 H,[3],46837
same,CMPD 1/DMSO,[4],0.539
same,MEAN MS SIGNAL CMPD 1 6 H,[4],44678
same,CMPD 1/DMSO,[5],0.359
same,MEAN MS SIGNAL CMPD 1 6 H,[5],9156
same,CMPD 1/DMSO,[6],0.429
same,MEAN MS SIGNAL CMPD 1 6 H,[6],13284
same,CMPD 1/DMSO,[7],0.142
same,MEAN MS SIGNAL CMPD 1 6 H,[7],17584
same,CMPD 1/DMSO,[8],0.215
same,MEAN MS SIGNAL CMPD 1 6 H,[8],56284
same,CMPD 1/DMSO,[9],0.344
same,MEAN MS SIGNAL CMPD 1 6 H,[9],14569
same,CMPD 1/DMSO,[10],0.404
same,MEAN MS SIGNAL CMPD 1 6 H,[10],11273
same,CMPD 1/DMSO,[11],0.324
same,MEAN MS SIGNAL CMPD 1 6 H,[11],51395
same,CMPD 1/DMSO,[12],0.499
same,MEAN MS SIGNAL CMPD 1 6 H,[12],13974
same,CMPD 1/DMSO,[13],0.635
same,MEAN MS SIGNAL CMPD 1 6 H,[13],12713
same,CMPD 1/DMSO,[14],2.036
same,MEAN MS SIGNAL CMPD 1 6 H,[14],126084
same,CMPD 1/DMSO,[15],0.618
same,MEAN MS SIGNAL CMPD 1 6 H,[15],97741
same,CMPD 1/DMSO,[16],0.562
same,MEAN MS SIGNAL CMPD 1 6 H,[16],425932
same,CMPD 1/DMSO,[17],1.857
same,MEAN MS SIGNAL CMPD 1 6 H,[17],157739
same,CMPD 1/DMSO,[18],0.492
same,MEAN MS SIGNAL CMPD 1 6 H,[18],411168
same,CMPD 1/DMSO,[19],0.553
same,MEAN MS SIGNAL CMPD 1 6 H,[19],167495
same,CMPD 1/DMSO,[20],0.535
same,MEAN MS SIGNAL CMPD 1 6 H,[20],63854
same,CMPD 1/DMSO,[21],0.255
same,MEAN MS SIGNAL CMPD 1 6 H,[21],32966
same,CMPD 1/DMSO,[22],0.605
same,MEAN MS SIGNAL CMPD 1 6 H,[22],787072
same,CMPD 1/DMSO,[23],1.818
same,MEAN MS SIGNAL CMPD 1 6 H,[23],361701
same,CMPD 1/DMSO,[24],0.562
same,MEAN MS SIGNAL CMPD 1 6 H,[24],109529
same,CMPD 1/DMSO,[25],0.592
same,MEAN MS SIGNAL CMPD 1 6 H,[25],508312

# Source: PMC12281475, “Mediator Kinase Inhibitor Selectivity and Activity in Colorectal Cancer” (ACS Chemical Biology, 2025)
